This is an account of results in patent publication US20230382869A1, “Phenyl-3,4-dihydroisoquinolin-2(1h)-yl-ethan-1-one derivatives as dopamine d1receptor positive allosteric modulators” (Eli Lilly and Company, priority 2020, published 2023).

As usually defined, the Papp is a coefficient for how fast a substance crosses the barrier. Read a low Papp as slow passage.

Read-outs that look alike come from different tables or passages of the source. Marks after values point to notes of the source that are not given here.

Data set [1] in a line: Renal and biliary excretion in bile-duct cannulated dogs. Format: in vivo, dog. The procedure: The renal and biliary excretion of test compounds is tested in bile-duct cannulated dogs essentially according to Burkey J L, et al. (2002) Disposition of LY333531, a selective protein kinase C beta inhibitor, in the Fischer 344 rat and beagle dog. Xenobiotica 32:1045-1052. The compound of Example 7 is tested essentially as described and its renal and biliary excretion is found to be negligible. The fraction of compound cleared through CYP3A4 metabolism is calculated using the equation below: […]

For another data set, the target named is CYP3A4 (Homo sapiens (Human), UniProt P08684). The data set can be described thus: Calculation of fraction of compound cleared through CYP3A4 metabolism (fmCYP3A4). The conditions noted are these: fmCYP × fm3A4_RCP (worst-case fm3A4_RCP = 1). The source says: The fraction of overall clearance of a drug via oxidative metabolism by the cytochrome P450 (CYP) is an important indication for potential victim drug-drug interaction mediated adverse effects. (see generally Ogu, Chris C., and Maxa, Jan L., Drug interactions due to cytochrome P450, BUMC Proceedings 2000; 13:421-423.) The greater fraction of overall clearance for a given drug that goes though a CYP oxidation pathway, particularly exclusively through a single CYP, as for example CYP3A4, the greater the potential that the drug may be found susceptible to undesired victim drug-drug interactions when used in therapy. To determine the fmCYP3A4 (the fraction of metabolism via CYP3A4), the fraction of P450-mediated oxidation, (fmCYP) is first determined in human hepatocytes. The relative contribution of CYP3A4 mediated oxidation (fmCYP3A4_RCP) over other P450 s is then determined using a recombinant CYP phenotyping assay (RCP). The fmCYP3A4 is calculated using the following equation:
fmCYP3A4=fmCYP×fmCYP3A4_RCP
The renal and biliary excretion of test compounds is tested in bile-duct cannulated dogs essentially according to Burkey J L, et al. (2002) Disposition of LY333531, a selective protein kinase C beta inhibitor, in the Fischer 344 rat and beagle dog. Xenobiotica 32:1045-1052. […] The fraction of compound cleared through CYP3A4 metabolism is calculated using the equation below: […]

Data set [2] can be described thus: In vivo tolerability in normal rats. The conditions noted are these: broad dose range.
The test system of the next data set is Cytochrome P450 (CYP). Kind of data set: Fraction of CYP-mediated oxidative metabolism (fmCYP) in human hepatocytes with/without ABT. The format is in vitro ADME. The protocol:
The relative contribution of P450 s in the overall metabolism of a compound was determined from the clearance of the drug in an assay using human hepatocytes in the presence and absence of the pan P450 inhibitor 1-aminobenzotriazole (ABT). The intrinsic clearance was determined in cryopreserved human hepatocytes essentially as described in McGinnity D F, et al. (2004) Evaluation of fresh and cryopreserved hepatocytes as in vitro drug metabolism tools for the prediction of metabolic clearance. Drug Metab Dispos 32:1247-1253. Generally, the assay incubations contain 0.3 μM test compound and 10^6 cells/mL hepatocytes, with or without 0.5 hr. pre-incubation with ABT (1 mM). Parent compound loss is measured by LC/MS after 15, 30, 60 and 90 min. incubation. The intrinsic clearance (μL/min/10^6 cells) is calculated using the following equation for both ±ABT. The fraction of metabolism by CYP is the percentage of inhibition by ABT.
CLint=−kdep×incubation volume/10^6 cells,
in which the kdep, the substrate depletion constant (min^−1), is the slope determined using linear regression from the log transformed % remaining on the y-axis vs time on the x-axis (min^−1).

The nature of data set [3]: Fraction unbound in vitro (equilibrium dialysis). Format: in vitro ADME. The protocol:
Example 7, 2-(2-chloro-6-fluoro-phenyl)-1-[(1S,3R)-6-fluoro-3-(hydroxymethyl)-5-(3-hydroxy-3-methyl-butyl)-1-methyl-3,4-dihydro-1H-isoquinolin-2-yl]ethenone, was orally dosed to male mouse from 3 mg/kg to 60 mg/kg in fed condition, and the plasma and brain concentration was determined 1 hr post-dose. The fraction unbound of the compound was determined in vitro as described previously (Zamek-Gliszczynski M J, et al., Validation of 96-well equilibrium dialysis with non-radiolabeled drug for definitive measurement of protein binding and application to clinical development of highly-bound drugs, J. Pharm. Sci. (2011) 100: 2498-2507). The ratio (Kpuu) of unbound brain concentration (Cu, brain) vs. unbound plasma concertation (Cu, plasma) was determined as described previously (Raub T J, et al., Brain Exposure of Two Selective Dual CDK4 and CDK6 Inhibitors and the Antitumor Activity of CDK4 and CDK6 Inhibition in Combination with Temozolomide in an Intracranial Glioblastoma Xenograft. Drug Metab. Dispos. (2015) 43:1360-71). The data presented below in Table 3 for Example 7 are averages from 3 animals at each dose. “Con.” refers to concentration.
In general terms: Equilibrium dialysis compares concentrations on both sides of a semipermeable membrane.

A short description of data set [4]: Passive permeability in MDCKII cell line (Papp). The conditions noted are these: dog, MDCK. Format: in vitro ADME. The source says:
Papp is the passive permeability measured in MDCKII cell line in house

Data set [5] deals with human D1 receptor knock-in mice. Kind of data set: Basal (Habituated) Locomotor Activity. The conditions noted are these: for Basal Locomotor Activity (Total Ambulations for 60 min) Means: N = 8/group. Format: in vivo, mouse. The procedure: Locomotor activity is measured using an automated system to track movement in mice. Monitoring of mouse locomotor activity behaviors take place in transparent plastic shoebox cages having dimensions of 45×25×20 cm, with a 1 cm depth of wood chips for absorbent bedding, and covered with a ventilated filtered plastic cage top. Cages were placed in a rectangular frame containing a grid of 12 photocell beams in an 8×4 configuration (Kinder Scientific, Poway, CA) that is positioned 2.5 centimeters from the floor of the cage for the detection of body movements (ambulations) and recorded by computer.
Male human D1 receptor knock-in mice are placed in chambers and allowed to habituate to the chambers for 60 min. During the habituation period, the mice show decreasing locomotion over time, as expected. Following administration of a compound of the invention, animal movement is found to increase in a dose-dependent fashion.
The mice are randomly assigned to treatment groups. In the dose response study, each mouse is placed individually into one of the locomotor activity boxes for a 60 min. habituation period. The mice are then dosed orally using test compound in a 20% hydroxypropyl-betacyclodextrin vehicle and using a 10 mL/kg dose volume. After dosing, the mice are placed back into the LMA boxes and the total number of ambulations is recorded per 10 min interval for each mouse over a 60 min measurement period. Statistical analysis is carried out using one-way ANOVA followed by post-hoc analysis using Dunnett's Comparison test.

Take `C[C@H]1c2ccc(F)c(CCC(C)(C)O)c2C[C@H](CO)N1C(=O)Cc1c(F)cccc1Cl` [Example 7, 2-(2-chloro-6-fluoro-phenyl)-1-[(1S,3R)-6-fluoro-3-(hydroxymethyl)-5-(3-hydroxy-3-methyl-butyl)-1-methyl-3,4-dihydro-1H-isoquinolin-2-yl]ethanone]: the “renal and biliary excretion” value in data set [1] was “negligible”. At CYP3A4, the fmCYP3A4 is on record as 0.322. The “tolerability / toxicity in vivo” value in data set [2] is recorded as “generally well tolerated”. For the same compound, the “route of metabolism in hepatocytes” value in the data set on Cytochrome P450 (CYP) is reported as “primarily metabolized through non-oxidative processes”. The compound further gave a fmCYP in the data set with Cytochrome P450 (CYP) (CLint ±ABT (1 mM), 0.3 μM compound) of 0.322. Further, the “fractions metabolized by CYPs” value in the data set on Cytochrome P450 (CYP) (±ABT) is reported as 32.3%. Besides, the fraction unbound in data set [3] (fraction unbound in brain, read-out: fu, brain) was found to be 0.0249; in data set [3] (fraction unbound in plasma, read-out: fu, plasma), 0.0141. Moreover, the Papp in data set [4] was 37.9 ×10⁻⁶ cm/s. In addition, the “Basal Locomotor Activity (Total Ambulations for 60 min) Means” value is on record as 538 in data set [5] (3.0 mg/kg PO); 1111 in data set [5] (6.0 mg/kg PO); 1471*** in data set [5] (10 mg/kg PO); 3937**** in data set [5] (30 mg/kg PO); 4613**** in data set [5] (60 mg/kg PO). In data set [5] (10, 30, and 60 mg/kg PO, habituated mice), the “in vivo efficacy in locomotor activation” value was “significant in vivo efficacy”. In data set [5] (oral dose response, 3-60 mg/kg), the basal movement result is listed as “increase basal movement in a dose dependent manner”.
